Reference: PubChem BioAssay AID2060627 (Molecular Pharmacology Branch, DTP, NCI, 2025)
Values joined by “and” are separate entries in the source; they are usually repeats but may differ in a detail not shown here. Identical values can stand only once.

Tested on: 156681-154-R-J1-PDC complex spheroid viability
Test: Anticancer human tumor 156681-154-R-J1-PDC patient-derived melanoma cell line growth inhibition [CLK]
Details: for viability, T/C: stronger effect = lower value; active = viability on the fitted dose curve at most 10% of control; inactive = the rest
Outline: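 Patient-derived tumor cells grown as complex spheroids with HUVEC endothelial cells and mesenchymal stem cells, treated with drug combinations. Concentrations descend in half-log steps from near clinical Cmax, or from 10 microM if Cmax unknown.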

[1] = curve of first compound, second compound 0.0316 µM
[2] = curve of first compound, second compound 0.1 µM
[3] = curve of first compound, second compound 0.316 µM
[4] = curve of first compound, second compound 1 µM
[5] = curve of first compound, second compound 3.16 µM
[6] = curve of first compound, second compound 10 µM
[7] = second compound 0.0316 µM, first compound 0.0316 µM
[8] = second compound 0.0316 µM, first compound 0.1 µM
[9] = second compound 0.0316 µM, first compound 0.316 µM
[10] = second compound 0.0316 µM, first compound 1 µM
[11] = second compound 0.1 µM, first compound 0.0316 µM
[12] = second compound 0.1 µM, first compound 0.1 µM
[13] = second compound 0.1 µM, first compound 0.316 µM
[14] = second compound 0.1 µM, first compound 1 µM
[15] = second compound 0.316 µM, first compound 0.0316 µM
[16] = second compound 0.316 µM, first compound 0.1 µM
[17] = second compound 0.316 µM, first compound 0.316 µM
[18] = second compound 0.316 µM, first compound 1 µM
[19] = second compound 1 µM, first compound 0.0316 µM
[20] = second compound 1 µM, first compound 0.1 µM
[21] = second compound 1 µM, first compound 0.316 µM
[22] = second compound 1 µM, first compound 1 µM
[23] = second compound 3.16 µM, first compound 0.0316 µM
[24] = second compound 3.16 µM, first compound 0.1 µM
[25] = second compound 3.16 µM, first compound 0.316 µM
[26] = second compound 3.16 µM, first compound 1 µM
[27] = second compound 10 µM, first compound 0.0316 µM
[28] = second compound 10 µM, first compound 0.1 µM
[29] = second compound 10 µM, first compound 0.316 µM
[30] = second compound 10 µM, first compound 1 µM
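Also: spheroids exposed to the agents for seven days.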
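For viability, T/C in this document: 100% = DMSO vehicle control viability.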

COc1cccc2c1C(=O)c1c(O)c3c(c(O)c1C2=O)CC(O)(C(=O)CO)CC3OC1CC(N)C(O)C(C)O1 (stereo not given) + CN1CCN(c2cc(C(=O)Nc3cc4cc(-c5cnn(C)c5)ccc4cn3)ccn2)CC1
< 31.6 nM: IC50 [1] | IC50 [2] | IC50 [3] | IC50 [4] | IC50 [5] | IC50 [6]
active: viability, T/C [9] 4.36% | viability, T/C [10] 0.18% | viability, T/C (second compound 0.0316 µM, first compound 3.16 µM) 0.09% | viability, T/C (second compound 0.0316 µM, first compound 10 µM) 3.75% | viability, T/C [13] 3.39% | viability, T/C [14] 0.14% | viability, T/C (second compound 0.1 µM, first compound 3.16 µM) 0.09% | viability, T/C (second compound 0.1 µM, first compound 10 µM) 0.26% | viability, T/C [16] 5.67% | viability, T/C [17] 0.29% | viability, T/C [18] 0.1% | viability, T/C (second compound 0.316 µM, first compound 3.16 µM) 0.2% | viability, T/C (second compound 0.316 µM, first compound 10 µM) 1.51% | viability, T/C [19] 0.37% | viability, T/C [20] 0.13% | viability, T/C [21] 0.57% | viability, T/C [22] 2.6% | viability, T/C (second compound 1 µM, first compound 3.16 µM) 0.76% | viability, T/C (second compound 1 µM, first compound 10 µM) 0.18% | viability, T/C [23] 0.05% | viability, T/C [24] 0.07% | viability, T/C [25] 0.08% | viability, T/C [26] 1.69% | viability, T/C (second compound 3.16 µM, first compound 3.16 µM) 1.88% | viability, T/C (second compound 3.16 µM, first compound 10 µM) 0.27% | viability, T/C [27] 0.05% | viability, T/C [28] 1.66% | viability, T/C [29] 2.85% | viability, T/C [30] 0.12% | viability, T/C (second compound 10 µM, first compound 3.16 µM) 1.59% | viability, T/C (second compound 10 µM, first compound 10 µM) 0.51%
inactive: viability, T/C [7] 43.4% | viability, T/C [8] 48.3% | viability, T/C [11] 30.6% | viability, T/C [12] 22.5% | viability, T/C [15] 11.2%

O=C(c1cc(Cc2n[nH]c(=O)c3ccccc23)ccc1F)N1CCN(C(=O)C2CC2)CC1
> 10000 nM: IC50 (curve of compound)
inactive: viability, T/C (compound 0.0316 µM) 92.3% and 97.7% | viability, T/C (compound 0.1 µM) 72.3% and 78.8% | viability, T/C (compound 0.316 µM) 72% and 85.3% | viability, T/C (compound 1 µM) 83.4% and 78.3% | viability, T/C (compound 3.16 µM) 72.3% and 90.1% | viability, T/C (compound 10 µM) 56.2% and 57.6%

CCc1c2c(nc3ccc(O)cc13)-c1cc3c(c(=O)n1C2)COC(=O)[C@]3(O)CC + CNC(=O)c1ccc(Nc2nc(OC3CCCC3)c3c(-c4ccc5nc(C)oc5c4)c[nH]c3n2)c(OC)c1
active: viability, T/C [10] 4.47% | viability, T/C [14] 5.02% | viability, T/C [20] 14.7% | viability, T/C [21] 9.49% | viability, T/C [22] 5.41% | viability, T/C [25] 13.1% | viability, T/C [26] 2.05% | viability, T/C [28] 12.5% | viability, T/C [29] 9.62% | viability, T/C [30] 1.61%
< 3.16 nM: IC50 [1] | IC50 [2] | IC50 [3] | IC50 [4] | IC50 [5] | IC50 [6]
inactive: viability, T/C (second compound 0.0316 µM, first compound 0.00316 µM) 27.7% | viability, T/C (second compound 0.0316 µM, first compound 0.01 µM) 15% | viability, T/C [7] 18% | viability, T/C [8] 19.4% | viability, T/C [9] 16.6% | viability, T/C (second compound 0.1 µM, first compound 0.00316 µM) 24.1% | viability, T/C (second compound 0.1 µM, first compound 0.01 µM) 16.7% | viability, T/C [11] 14% | viability, T/C [12] 17.7% | viability, T/C [13] 14.9% | viability, T/C (second compound 0.316 µM, first compound 0.00316 µM) 27.4% | viability, T/C (second compound 0.316 µM, first compound 0.01 µM) 14.2% | viability, T/C [15] 12.8% | viability, T/C [16] 16.4% | viability, T/C [17] 14.8% | viability, T/C [18] 5.29% | viability, T/C (second compound 1 µM, first compound 0.00316 µM) 21.9% | viability, T/C (second compound 1 µM, first compound 0.01 µM) 11.3% | viability, T/C [19] 10.5% | viability, T/C (second compound 3.16 µM, first compound 0.00316 µM) 20.9% | viability, T/C (second compound 3.16 µM, first compound 0.01 µM) 15.8% | viability, T/C [23] 10.4% | viability, T/C [24] 14.2% | viability, T/C (second compound 10 µM, first compound 0.00316 µM) 18.9% | viability, T/C (second compound 10 µM, first compound 0.01 µM) 12% | viability, T/C [27] 11.1%

CC(C)CC(NC(=O)C(Cc1ccccc1)NC(=O)c1cnccn1)B(O)O (stereo not given) + CNC(=O)c1ccc(Nc2nc(OC3CCCC3)c3c(-c4ccc5nc(C)oc5c4)c[nH]c3n2)c(OC)c1
active: viability, T/C (second compound 0.0316 µM, first compound 0.000949 µM) 9.11% | viability, T/C (second compound 0.0316 µM, first compound 0.003 µM) 2.74% | viability, T/C (second compound 0.0316 µM, first compound 0.00949 µM) 0.21% | viability, T/C (second compound 0.0316 µM, first compound 0.03 µM) 0.23% | viability, T/C (second compound 0.0316 µM, first compound 0.0949 µM) 0.18% | viability, T/C (second compound 0.0316 µM, first compound 0.3 µM) 1.15% | viability, T/C (second compound 0.1 µM, first compound 0.003 µM) 0.3% | viability, T/C (second compound 0.1 µM, first compound 0.00949 µM) 0.24% | viability, T/C (second compound 0.1 µM, first compound 0.03 µM) 0.21% | viability, T/C (second compound 0.1 µM, first compound 0.0949 µM) 0.18% | viability, T/C (second compound 0.1 µM, first compound 0.3 µM) 1.03% | viability, T/C (second compound 0.316 µM, first compound 0.003 µM) 0.88% | viability, T/C (second compound 0.316 µM, first compound 0.00949 µM) 0.24% | viability, T/C (second compound 0.316 µM, first compound 0.03 µM) 0.19% | viability, T/C (second compound 0.316 µM, first compound 0.0949 µM) 0.15% | viability, T/C (second compound 0.316 µM, first compound 0.3 µM) 0.15% | viability, T/C (second compound 1 µM, first compound 0.003 µM) 0.29% | viability, T/C (second compound 1 µM, first compound 0.00949 µM) 1.19% | viability, T/C (second compound 1 µM, first compound 0.03 µM) 0.21% | viability, T/C (second compound 1 µM, first compound 0.0949 µM) 0.19% | viability, T/C (second compound 1 µM, first compound 0.3 µM) 1.63% | viability, T/C (second compound 3.16 µM, first compound 0.003 µM) 1% | viability, T/C (second compound 3.16 µM, first compound 0.00949 µM) 1.37% | viability, T/C (second compound 3.16 µM, first compound 0.03 µM) 0.21% | viability, T/C (second compound 3.16 µM, first compound 0.0949 µM) 0.2% | viability, T/C (second compound 3.16 µM, first compound 0.3 µM) 0.39% | viability, T/C (second compound 10 µM, first compound 0.003 µM) 1.3% | viability, T/C (second compound 10 µM, first compound 0.00949 µM) 0.27% | viability, T/C (second compound 10 µM, first compound 0.03 µM) 0.31% | viability, T/C (second compound 10 µM, first compound 0.0949 µM) 0.26% | viability, T/C (second compound 10 µM, first compound 0.3 µM) 0.15%
< 0.949 nM: IC50 [1] | IC50 [2] | IC50 [3] | IC50 [4] | IC50 [5] | IC50 [6]
inactive: viability, T/C (second compound 0.1 µM, first compound 0.000949 µM) 15.1% | viability, T/C (second compound 0.316 µM, first compound 0.000949 µM) 16.6% | viability, T/C (second compound 1 µM, first compound 0.000949 µM) 15.8% | viability, T/C (second compound 3.16 µM, first compound 0.000949 µM) 14.2% | viability, T/C (second compound 10 µM, first compound 0.000949 µM) 14.7%

NC(=O)C(=Cn1cnc(-c2cc(C(F)(F)F)cc(C(F)(F)F)c2)n1)c1cncnc1
73.9 nM and 34.7 nM: IC50 (curve of compound)
active: viability, T/C (compound 0.949 µM) 6.97% and 7.35% | viability, T/C (compound 3 µM) 4.72% and 4.92%
inactive: viability, T/C (compound 0.00949 µM) 79.6% and 73.7% | viability, T/C (compound 0.03 µM) 67.2% and 49.7% | viability, T/C (compound 0.0949 µM) 46.6% and 36.5% | viability, T/C (compound 0.3 µM) 14.8% and 11.8%
